Data on two compounds can be found in US11542271B2, “Fused heteroaromatic-aniline compounds for treatment of dermal disorders” (NFlection Therapeutics, Inc., priority 2017, dated 2023).

In data set [1] the test system is p-ERK in human cutaneous neurofibroma explants. Description: Human cutaneous neurofibroma explant p-ERK suppression (Biological Example 7). It is filed as cell-based. To be noted: topical gel formulation (1%), harvested at 4 hours, vs vehicle gel. The text has this:
The primary objective was to assess the efficacy of a topically-formulated compound described herein in suppressing p-ERK, a downstream biomarker of RAS/MAPK signaling in neurofibroma explants. The secondary objectives was to assess permeability (where the compound was applied topically) of neurofibroma explants treated with a compound described herein.
Primary dermal neurofibromas or cutaneous neurofibromas were obtained from patients with clinical or genetic diagnoses of NF1. Discarded human neurofibromas samples were obtained from the Stanford Surgery Clinic, using an approved human subjects protocol (Stanford IRB #18325). Specimens were identified under the direction of the Principal Investigator and placed in cell proliferation media (DMEM/F12 containing penicillin/streptomycin (0.1%); fungizone (40 μg/mL); B27 (without vitamin A).
Specimens were identified under the direction of the Principal Investigator
Specimens were chopped into 2 mm fragments and placed in 24-well plates containing cell proliferation media (DMEM/F12 containing penicillin/streptomycin (0.1%); fungizone (40 μg/mL); B27 (without vitamin A) and submerged in media with drug. For topical gel application, samples were placed in 96 well plates with epidermal surface exposed to air. […]

In data set [2] the target is T1, MAP2K1 (MEK1) (Homo sapiens, UniProt Q02750).
T1 construct: purchased ThermoFisher
The data set can be described thus: MEK Inhibition Assay (Biological Example 1b, Z'-LYTE). As to conditions: Biological Example 1b (compounds 1, 3, 5, 7-8); read-out: Assay 1: biochemical MEK IC50. Here is the method: MEK1 inhibitory activity of compounds were tested using the following procedure (protocol available at thermofisher.com/content/dam/LifeTech/migration/files/drug-discovery/pdfs.par.60256.file.dat/20130430%20ssbk%20customer%20protocol%20and%20assay%20conditions.pdf). The Z′-LYTE biochemical assay (ThermoFisher) employs a fluorescence-based, coupled-enzyme format and is based on the differential sensitivity of phosphorylated and non-phosphorylated peptides to proteolytic cleavage.
Test compounds in 100% DMSO were screened in 1% DMSO (final) in the well. For 10 point titrations, 3-fold serial dilutions are conducted from the starting concentration of 30 μM.
After the 1 hour incubation, 5 μL of a 1:1024 dilution of Development Reagent A (available from Invitrogen, catalog no. PV3295) was added.
ATP solutions were diluted to a 4× working concentration in Kinase Buffer (50 mM HEPES pH 7.5, 0.01% BRIJ-35, 10 mM MgCl2, 1 mM EGTA). ATP Km apparent was previously determined using a Z′-LYTE assay. The Development Reagent was diluted in Development Buffer (available from Invitrogen, catalog no. P3127).
Assay Protocol: 2.5 μL of 4× test compound or 100 nL of 100× Test Compound plus 2.4 μL Kinase Buffer, 5 μL of the 2× Peptide/Kinase Mixture, 2.5 μL of 4×ATP Solution were added to the plates and placed on a shake plate for 30-seconds. The kinase reaction was allowed to proceed for 60-minute at room temperature, before 5 μL of Development Reagent Solution was added, and the mixture agitated for 30-seconds on a shake plate. The mixture was incubated for 60-minute at room temperature. Fluorescence was measured using a plate reader and the data were analyzed.
This control yielded 100% cleaved peptide in the Development Reaction. The 100% Phosphorylation Control, which consisted of a synthetically phosphorylated peptide of the same sequence as the peptide substrate, was designed to allow for the calculation of percent phosphorylation. This control yielded a very low percentage of cleaved peptide in the Development Reaction. The 0% Phosphorylation and 100% Phosphorylation Controls allow for the calculation of the percent phosphorylation achieved in a specific reaction well.
The minimum emission ratio in a screen was established by the 0% Inhibition Control, which contained active kinase. This control was designed to produce a 10-50% phosphorylated peptide in the Kinase Reaction. Cascade assays may produce up to 70% phosphorylated peptide.
A known inhibitor control standard curve, 10 point titration, was run for each individual kinase on the same plate as the kinase to ensure the kinase was inhibited within an expected IC50 range previously determined.
The following controls are prepared for each concentration of Test Compound assayed. […] The expected value for a non-interfering compound should be 100%. Any value outside of 90% to 110% was flagged. […] The expected value for a non-fluorescence compound should be 0%. Any value >20% was flagged.
The data in Table A was calculated. XLfit from IDBS was used. The dose response curve was curve fit to model number 205 (sigmoidal dose-response model).

A short description of data set [3]: S9 Stability Assay, human liver S9 fraction. It is filed as in vitro ADME. How it is done: Compounds were assessed for metabolic stability in human skin by assessing their rate of disappearance from human S9 skin fraction. Similarly, compounds were assessed for metabolic stability in human liver by assessing their rate of disappearance from human S9 liver fraction. The protocol below can be used to assess the difference between skin and hepatic metabolism.
The assay was carried out in 96-well microtiter plates at 37° C. Reaction mixtures (25 μL) contained a final concentration of 1 μM test compound, 2 mg/mL liver or skin S9 protein, and 1 mM NADPH in buffer (100 mM potassium phosphate, pH 7.4 buffer with 1 mM EDTA, 3 mM MgCl2). At each of the time points (0, 15, 30, and 60 minutes), 150 μL of quench solution (100% acetonitrile with 0.1% formic acid) with internal standard was transferred to each well. Besides the zero minute controls, mixtures containing the same components except the NADPH were also prepared as the negative control. Verapamil or testosterone was included as a positive control to verify assay performance. Plates were sealed and centrifuged at 4° C. for 15 minutes at 4000 rpm. The supernatant was transferred to fresh plates for LC/MS/MS analysis.
All samples were analyzed on LC/MS/MS using an AB Sciex API 4000 instrument, coupled to a Shimadzu LC-20AD LC Pump system. Analytical samples were separated using a Waters Atlantis T3 dC18 reverse phase HPLC column (20 mm×2.1 mm) at a flow rate of 0.5 mL/min. The mobile phase consisted of 0.1% formic acid in water (solvent A) and 0.1% formic acid in 100% acetonitrile (solvent B).
The extent of metabolism was calculated as the disappearance of the test compound, compared to the 0-min control reaction incubations. Initial rates were calculated for the compound concentration and used to determine t1/2 values and subsequently, the intrinsic clearance, CLint=(0.693) (1/t1/2 (min)) (mL incubation/mg of S9 protein).

For data set [4], the system named is C57BL/6J mice. The data set can be described thus: In vivo mouse model of skin and systemic toxicity (Biological Example 6b). As to conditions: topically applied 1%, twice daily 5 days per week. How it is done:
These mice are also shaved weekly.
Biological Example 6b was carried out with the following arms: oral vehicle, oral Trametinib, topical vehicle, and topical Trametinib (1%).

Entries after “also recorded” stand apart in the source; their conditions may differ.

T1 sequence (Q02750 whole entry): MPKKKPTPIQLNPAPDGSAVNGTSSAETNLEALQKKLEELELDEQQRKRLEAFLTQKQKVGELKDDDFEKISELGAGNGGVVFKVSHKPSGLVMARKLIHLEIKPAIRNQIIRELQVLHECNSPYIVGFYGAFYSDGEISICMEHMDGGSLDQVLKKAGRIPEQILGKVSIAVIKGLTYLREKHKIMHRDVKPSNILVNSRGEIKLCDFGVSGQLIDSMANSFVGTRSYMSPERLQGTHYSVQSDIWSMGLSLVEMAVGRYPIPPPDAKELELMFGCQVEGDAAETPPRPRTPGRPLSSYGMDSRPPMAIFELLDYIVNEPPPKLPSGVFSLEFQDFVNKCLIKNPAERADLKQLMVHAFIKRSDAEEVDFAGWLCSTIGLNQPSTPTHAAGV

In general, IC50 refers to the concentration needed to halve the response being measured. Turning to `O=C(NOCCO)c1c(Nc2ccc(I)cc2F)sc2ncc(F)cc12` [Ex. 8, 2-((2-Fluoro-4-iodophenyl)amino)-N-(2-hydroxyethoxy)-5-fluorothieno[2,3-b]pyridine-3-carboxamide], the “p-ERK in human cutaneous neurofibroma explants” value in data set [1] is reported as “suppression of p-ERK”. The half-maximal inhibitory concentration (IC50) in data set [2] stood at 256 nM. Also, in data set [3] (human liver S9), the “Assay 5: human liver S9 intrinsic clearance value (μL/min/mg protein)” value amounted to 57.15 μL/min/mg protein. Further, in data set [3] (pH 7.4, Table 1, human liver S9 fraction, 1 μM test compound, 2 mg/mL S9 protein, NADPH, read-out: Liver S9 t1/2), the half-life at 1 μM was determined as 6 min. The microsomal CLint at 1 μM in data set [3] (pH 7.4, Table 1, human liver S9 fraction, read-out: CLint (μL/min/mg protein)) came out at 57.1 µL/min/mg.

Take `CC(=O)Nc1cccc(-n2c(=O)n(C3CC3)c(=O)c3c(Nc4ccc(I)cc4F)n(C)c(=O)c(C)c32)c1` [trametinib]: the “toxicity of topical application” value in data set [4] is listed as “found dead, or had to be sacrificed due to unacceptable weight loss; also recorded: significant toxicity”.
